Results from patent US20120027777A1, “LJUNGAN VIRUS WITH IMPROVED REPLICATION CHARACTERISTICS” (APODEMUS AB, priority 2009, published 2012).

Tested on: GMK cells
Assay: Cellular DNA degradation by electrophoresis
Type: cell-based, Green Monkey
Conditions: uninfected GMK cells, 16 h treatment, 0.5 μM, positive control
Method: Degradation of chromosomal DNA is one of the hallmarks of apoptotic cells. DNA degradation in GMK cells infected with 145SL and 145SLG as well as recombinant derivatives of these viruses was assayed as previously described by with some minor modifications. Briefly, subconfluent GMK cells in T25-flasks were infected with 0.5 mL of virus lysates generated from viral cDNA clones by transfection and subsequent blind passage as previously described. […] Lysis of cells was induced using 0.2% Triton X-100, 0.5 mM EDTA in 10 mM Tris-HCl, pH 7.4. Fragmented chromatin was released from cell nuclei by vortexing. The nucleic components were separated (20,000×g for 10 min at 4° C.) and the nucleic acids in the supernatant fraction were precipitated. After precipitation, the nucleic acids were washed in 70% ethanol and dissolved in 50 μl TE buffer (1 mM EDTA, 10 mM Tris-HCl, pH 7.4). The RNA fraction of isolated nucleic acids was degraded using RNase A (10 μg/ml for 30 min at 37° C.). Finally, 1 μg isolated nucleic acids of each sample were separated by electrophoresis in a 1.5% agarose gel. Apoptosis in control cells was induced by a 16 h treatment of GMK cells with 0.5 μM staurosporine (Sigma), a broad spectrum protein kinase inhibitor [10]. The nucleic acids from these control cells were otherwise treated in the same way as described for cells infected with LV.

Q: How did the DNA fragmentation turn out when `CN[C@@H]1C[C@H]2O[C@@](C)([C@@H]1OC)n1c3ccccc3c3c4c(c5c6ccccc6n2c5c31)C(=O)NC4` [staurosporine] was run?
A: The DNA fragmentation was “expected processing of the nuclear DNA”.
